Experimental data: patent US20100099122A1 (priority 2008, published 2010)
Entries after “also recorded” stand apart in the source; their conditions may differ. Where two headings read alike, the source gives them in different places.

Key:
H. capsulatum Ggt1 = H. capsulatum Ggt1 (Histoplasma ohiense, UniProt A0ACF1AEB1); format: biochemical
[1] = test system: H. capsulatum Ggt1 (GSH-FeR); format: biochemical, Histoplasma capsulatum; conditions: inhibitor 0.1 mM, 15 min pretreatment, then removed by diafiltration, GSH-FeR activity
[2] = test system: H. capsulatum Ggt1 (GSH-FeR); conditions: cited from earlier work

## [Al] [Aluminum, aluminum]
H. capsulatum Ggt1
  Glu transfer catalyzed by γ-Glutamyltransferase (Ggt1), effect of inhibitor: no inhibitory action; also recorded: No effect
[1]
  Fe^3+ reduction catalyzed by γ-Glutamyltransferase (Ggt1), effect of inhibitor: strong inhibitory effect; also recorded: Inhibition
[2]
  inhibition of GSH-FeR activity: reversibly inhibited

## [N-]=[N+]=CC(=O)CC[C@H](N)C(=O)O [DON, 6-diazo-5-oxo-L-norleucine]
H. capsulatum Ggt1
  Glu transfer catalyzed by γ-Glutamyltransferase (Ggt1), effect of inhibitor: completely abolished; also recorded: Inhibition
[1]
  Fe^3+ reduction catalyzed by γ-Glutamyltransferase (Ggt1), effect of inhibitor: completely abolished; also recorded: Inhibition

## N[C@@H](CS)C(=O)NCC(=O)O [cysteinylglycine]
1 mM
  ability to reduce iron compared to the activity of 1 mM GSH: over 117 fold
0.5-1 mM
  iron reduction activity (ferrous iron generated): generated measurable amounts of ferrous iron
pH 5.5
  iron reduction by cysteinylglycine alone: 2.85±0.08 μmol of Fe^2+ min^−1 (mmol CysGly)^−1

## N[C@H](C(=O)O)[C@@H]1CC(Cl)=NO1 [Acivicin, acivicin]
H. capsulatum Ggt1
  Glu transfer catalyzed by γ-Glutamyltransferase (Ggt1), effect of inhibitor: completely abolished; also recorded: Inhibition
[1]
  Fe^3+ reduction catalyzed by γ-Glutamyltransferase (Ggt1), effect of inhibitor: Inhibition
[1]; listed as acivicin
  Fe^3+ reduction catalyzed by γ-Glutamyltransferase (Ggt1), effect of inhibitor: completely abolished

## N[C@@H](CCC(=O)Nc1ccc([N+](=O)[O-])cc1)C(=O)O [GpNA, γ-glutamyl-p-nitroanilide]
H. capsulatum Ggt1; read-out: apparent optimal Km for GpNA, glutamyl transfer reaction
  Km: ~840 µM
H. capsulatum Ggt1; read-out: apparent optimal Km for GpNA, hydrolysis
  Km: ~750 µM

## [Ga] [gallium]
H. capsulatum Ggt1
  Glu transfer catalyzed by γ-Glutamyltransferase (Ggt1), effect of inhibitor: no inhibitory action; also recorded: No effect
[1]
  Fe^3+ reduction catalyzed by γ-Glutamyltransferase (Ggt1), effect of inhibitor: strong inhibitory effect; also recorded: Inhibition
[2]
  inhibition of GSH-FeR activity: reversibly inhibited

## serine/borate complex [SBC]
H. capsulatum Ggt1
  Glu transfer catalyzed by γ-Glutamyltransferase (Ggt1), effect of inhibitor: completely abolished; also recorded: Inhibition
[1]
  Fe^3+ reduction catalyzed by γ-Glutamyltransferase (Ggt1), effect of inhibitor: completely abolished; also recorded: Inhibition
